Test results reported in patent US10131652B2, “Pyrimidinyloxy benzene derivatives as herbicides” (E. I. DU PONT DE NEMOURS AND COMPANY, priority 2014, dated 2018).
Where two headings read alike, the source gives them in different places.

How the values were obtained:
Assay in all cases: Test E pre-/postemergence plant response
Assay type in all cases: in vivo
kochia (Kochia scoparia) = details: Bassia scoparia, scale 0 to 100, read-out: Plant response rating, Kochia; for pest or weed control at 16 g/ha: 16 g ai/ha; for pest or weed control at 31 g/ha: 31 g ai/ha; for pest or weed control at 62 g/ha: 62 g ai/ha; for pest or weed control at 125 g/ha: 125 g ai/ha
In short: (§1)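 Pre-emergence: seeds sown in silt loam soil and sprayed with test chemicals in a non-phytotoxic solvent/surfactant mix. Post-emergence: plants at 2–18 cm (1- to 4-leaf stage) in peat/vermiculite medium treated with the same formulation. Visual rating versus controls after 7–21 days, 0 (no effect) to 100 (complete control).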

[1] = system: chickweed (common chickweed, Stellaria media); details: scale 0 to 100, read-out: Plant response rating, Chickweed; for pest or weed control at 16 g/ha: 16 g ai/ha; for pest or weed control at 31 g/ha: 31 g ai/ha; for pest or weed control at 62 g/ha: 62 g ai/ha; for pest or weed control at 125 g/ha: 125 g ai/ha
In short: as §1

[2] = system: downy bromegrass (Bromus tectorum); details: scale 0 to 100, read-out: Plant response rating, Bromegrass, Downy; for pest or weed control at 16 g/ha: 16 g ai/ha; for pest or weed control at 31 g/ha: 31 g ai/ha; for pest or weed control at 62 g/ha: 62 g ai/ha; for pest or weed control at 125 g/ha: 125 g ai/ha
In short: as §1

[3] = system: winter barley (Hordeum vulgare); details: post-emergence, Postemergence, scale 0 to 100, read-out: Plant response rating, Barley, Winter
In short: as §1

[4] = system: pigweed (Amaranthus retroflexus); details: scale 0 to 100, read-out: Plant response rating, Pigweed; for pest or weed control at 16 g/ha: 16 g ai/ha; for pest or weed control at 31 g/ha: 31 g ai/ha; for pest or weed control at 62 g/ha: 62 g ai/ha; for pest or weed control at 125 g/ha: 125 g ai/ha
In short: as §1

[5] = system: wild buckwheat (Polygonum convolvulus); details: Fallopia convolvulus, scale 0 to 100, read-out: Plant response rating, Buckwheat, Wild; for pest or weed control at 16 g/ha: 16 g ai/ha; for pest or weed control at 31 g/ha: 31 g ai/ha; for pest or weed control at 62 g/ha: 62 g ai/ha; for pest or weed control at 125 g/ha: 125 g ai/ha
In short: as §1

[6] = system: spring barley (Hordeum vulgare); details: post-emergence, Postemergence
In short: as §1

[7] = system: canarygrass (Phalaris minor); details: scale 0 to 100, read-out: Plant response rating, Canarygrass; for pest or weed control at 16 g/ha: 16 g ai/ha; for pest or weed control at 31 g/ha: 31 g ai/ha; for pest or weed control at 62 g/ha: 62 g ai/ha; for pest or weed control at 125 g/ha: 125 g ai/ha
In short: as §1

[8] = system: speedwell (bird's-eye speedwell, Veronica persica); details: scale 0 to 100, read-out: Plant response rating, Speedwell; for pest or weed control at 16 g/ha: 16 g ai/ha; for pest or weed control at 62 g/ha: 62 g ai/ha; for pest or weed control at 125 g/ha: 125 g ai/ha
In short: as §1

[9] = system: windgrass (Apera spica-venti); details: scale 0 to 100, read-out: Plant response rating, Windgrass; for pest or weed control at 16 g/ha: 16 g ai/ha; for pest or weed control at 62 g/ha: 62 g ai/ha; for pest or weed control at 125 g/ha: 125 g ai/ha
In short: as §1

[10] = system: field poppy (Papaver rhoeas); details: scale 0 to 100, read-out: Plant response rating, Field Poppy; for pest or weed control at 16 g/ha: 16 g ai/ha; for pest or weed control at 31 g/ha: 31 g ai/ha; for pest or weed control at 62 g/ha: 62 g ai/ha; for pest or weed control at 125 g/ha: 125 g ai/ha
In short: as §1

[11] = post-emergence, 31 g ai/ha, Postemergence

Compound `FC(F)c1cc(-c2ccccc2Oc2ncc(Cl)cn2)no1` [Compound 35, 5-chloro-2-[2-[5-(difluoromethyl)-3-isoxazolyl]phenoxy]pyrimidine] has a pest or weed control at 16 g/ha (kochia (Kochia scoparia); post-emergence, Postemergence) of 75%, a pest or weed control at 31 g/ha (kochia (Kochia scoparia); post-emergence, Postemergence) of 75% and a pest or weed control at 62 g/ha (kochia (Kochia scoparia); post-emergence, Postemergence) of 80%. It also gave a pest or weed control at 125 g/ha (kochia (Kochia scoparia); post-emergence, Postemergence) of 90%, a pest or weed control at 16 g/ha (kochia (Kochia scoparia); pre-emergence, Preemergence) of 25% and a pest or weed control at 31 g/ha (kochia (Kochia scoparia); pre-emergence, Preemergence) of 65%. For the same compound, the pest or weed control at 62 g/ha (kochia (Kochia scoparia); pre-emergence, Preemergence) was 100%, the pest or weed control at 125 g/ha (kochia (Kochia scoparia); pre-emergence, Preemergence) was 100% and the pest or weed control at 16 g/ha ([1]; post-emergence, Postemergence) was 65%. For the same compound, the pest or weed control at 31 g/ha ([1]; post-emergence, Postemergence) was 75%, the pest or weed control at 62 g/ha ([1]; post-emergence, Postemergence) was 75% and the pest or weed control at 125 g/ha ([1]; post-emergence, Postemergence) was 100%. For the same compound, the pest or weed control at 16 g/ha ([1]; pre-emergence, Preemergence) was 55%, the pest or weed control at 31 g/ha ([1]; pre-emergence, Preemergence) was 100% and the pest or weed control at 62 g/ha ([1]; pre-emergence, Preemergence) was 95%. The pest or weed control at 125 g/ha ([1]; pre-emergence, Preemergence) was 100%, the pest or weed control at 16 g/ha ([2]; post-emergence, Postemergence) was 5% and the pest or weed control at 31 g/ha ([2]; post-emergence, Postemergence) was 5%. It also gave a pest or weed control at 62 g/ha ([2]; post-emergence, Postemergence) of 15%, a pest or weed control at 125 g/ha ([2]; post-emergence, Postemergence) of 30% and a pest or weed control at 16 g/ha ([2]; pre-emergence, Preemergence) of 0%. It also gave a pest or weed control at 31 g/ha ([2]; pre-emergence, Preemergence) of 35%, a pest or weed control at 62 g/ha ([2]; pre-emergence, Preemergence) of 35% and a pest or weed control at 125 g/ha ([2]; pre-emergence, Preemergence) of 25%. For the same compound, the plant injury at 16 g/ha ([3]; 16 g ai/ha) was 0%, the plant injury at 31 g/ha ([3]; 31 g ai/ha) was 0% and the plant injury at 62 g/ha ([3]; 62 g ai/ha) was 5%. It also gave a plant injury at 125 g/ha ([3]; 125 g ai/ha) of 30%, a pest or weed control at 16 g/ha ([4]; post-emergence, Postemergence) of 85% and a pest or weed control at 31 g/ha ([4]; post-emergence, Postemergence) of 90%. The pest or weed control at 62 g/ha ([4]; post-emergence, Postemergence) was 90%, the pest or weed control at 125 g/ha ([4]; post-emergence, Postemergence) was 90% and the pest or weed control at 16 g/ha ([4]; pre-emergence, Preemergence) was 90%. For the same compound, the pest or weed control at 31 g/ha ([4]; pre-emergence, Preemergence) was 95%, the pest or weed control at 62 g/ha ([4]; pre-emergence, Preemergence) was 100% and the pest or weed control at 125 g/ha ([4]; pre-emergence, Preemergence) was 100%. It also gave a pest or weed control at 16 g/ha ([5]; post-emergence, Postemergence) of 75%, a pest or weed control at 31 g/ha ([5]; post-emergence, Postemergence) of 85% and a pest or weed control at 62 g/ha ([5]; post-emergence, Postemergence) of 90%. For the same compound, the pest or weed control at 125 g/ha ([5]; post-emergence, Postemergence) was 95%, the pest or weed control at 16 g/ha ([5]; pre-emergence, Preemergence) was 60% and the pest or weed control at 31 g/ha ([5]; pre-emergence, Preemergence) was 75%. It also gave a pest or weed control at 62 g/ha ([5]; pre-emergence, Preemergence) of 90%, a pest or weed control at 125 g/ha ([5]; pre-emergence, Preemergence) of 100% and a plant injury at 16 g/ha ([6]; 16 g ai/ha, scale 0 to 100, read-out: Plant response rating, Barley, Spring) of 5%. It also gave a plant injury at 31 g/ha ([6]; 31 g ai/ha, scale 0 to 100, read-out: Plant response rating, Barley, Spring) of 5%, a plant injury at 62 g/ha ([6]; 62 g ai/ha, scale 0 to 100, read-out: Plant response rating, Barley, Spring) of 10% and a plant injury at 125 g/ha ([6]; 125 g ai/ha, scale 0 to 100 (0 no effect, 100 complete control), read-out: Plant response rating, Barley, Spring) of 25%. The pest or weed control at 16 g/ha ([7]; post-emergence, Postemergence) was 10%, the pest or weed control at 31 g/ha ([7]; post-emergence, Postemergence) was 25% and the pest or weed control at 62 g/ha ([7]; post-emergence, Postemergence) was 55%. For the same compound, the pest or weed control at 125 g/ha ([7]; post-emergence, Postemergence) was 60%, the pest or weed control at 16 g/ha ([7]; pre-emergence, Preemergence) was 40% and the pest or weed control at 31 g/ha ([7]; pre-emergence, Preemergence) was 55%. The pest or weed control at 62 g/ha ([7]; pre-emergence, Preemergence) was 95%, the pest or weed control at 125 g/ha ([7]; pre-emergence, Preemergence) was 100% and the pest or weed control at 16 g/ha ([8]; post-emergence, Postemergence) was 75%. It also gave a pest or weed control at 31 g/ha [8, 11] of 100%, a pest or weed control at 62 g/ha ([8]; post-emergence, Postemergence) of 100% and a pest or weed control at 125 g/ha ([8]; post-emergence, Postemergence) of 100%. For the same compound, the pest or weed control at 16 g/ha ([8]; pre-emergence, Preemergence) was 100%, the pest or weed control at 62 g/ha ([8]; pre-emergence, Preemergence) was 100% and the pest or weed control at 125 g/ha ([8]; pre-emergence, Preemergence) was 100%. The pest or weed control at 16 g/ha ([9]; post-emergence, Postemergence) was 10%, the pest or weed control at 31 g/ha [9, 11] was 25% and the pest or weed control at 62 g/ha ([9]; post-emergence, Postemergence) was 30%. It also gave a pest or weed control at 125 g/ha ([9]; post-emergence, Postemergence) of 40%, a pest or weed control at 16 g/ha ([9]; pre-emergence, Preemergence) of 35% and a pest or weed control at 62 g/ha ([9]; pre-emergence, Preemergence) of 85%. The pest or weed control at 125 g/ha ([9]; pre-emergence, Preemergence) was 100%, the pest or weed control at 16 g/ha ([10]; post-emergence, Postemergence) was 70% and the pest or weed control at 31 g/ha ([10]; post-emergence, Postemergence) was 75%. For the same compound, the pest or weed control at 62 g/ha ([10]; post-emergence, Postemergence) was 80%, the pest or weed control at 125 g/ha ([10]; post-emergence, Postemergence) was 100% and the pest or weed control at 16 g/ha ([10]; pre-emergence, Preemergence) was 75%. It also gave a pest or weed control at 31 g/ha ([10]; pre-emergence, Preemergence) of 80%, a pest or weed control at 62 g/ha ([10]; pre-emergence, Preemergence) of 90% and a pest or weed control at 125 g/ha ([10]; pre-emergence, Preemergence) of 90%.
